Data as given in PubChem BioAssay AID1963875 (Molecular Pharmacology Branch, DTP, NCI, 2024).

System: KRAS-mutant PDC complex spheroid viability
Test: Anticancer human tumor 186277-243-T-J2-PDC patient-derived colon adenocarcinoma cell line growth inhibition [KRAS2]
Settings: for IC50: curve of first compound; for viability, T/C: stronger effect = lower value
Procedure, shortened: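 Combination screen of spheroid viability in tumor-cell co-cultures with endothelial (HUVEC) and mesenchymal stem cell stroma. Each agent was tested in half-log dilutions, topping at clinical Cmax or at 10 microM without a known Cmax.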

[1] = second compound 0.1 µM, first compound 0.0316 µM
[2] = second compound 0.1 µM, first compound 0.1 µM
[3] = second compound 0.1 µM, first compound 0.316 µM
[4] = second compound 0.1 µM, first compound 1 µM
[5] = second compound 0.1 µM, first compound 3.16 µM
[6] = second compound 0.1 µM, first compound 10 µM
[7] = second compound 0.316 µM, first compound 0.0316 µM
[8] = second compound 0.316 µM, first compound 0.1 µM
[9] = second compound 0.316 µM, first compound 0.316 µM
[10] = second compound 0.316 µM, first compound 1 µM
[11] = second compound 0.316 µM, first compound 3.16 µM
[12] = second compound 0.316 µM, first compound 10 µM
[13] = second compound 1 µM, first compound 0.0316 µM
[14] = second compound 1 µM, first compound 0.1 µM
[15] = second compound 1 µM, first compound 0.316 µM
[16] = second compound 1 µM, first compound 1 µM
[17] = second compound 1 µM, first compound 3.16 µM
[18] = second compound 1 µM, first compound 10 µM
[19] = second compound 3.16 µM, first compound 0.0316 µM
[20] = second compound 3.16 µM, first compound 0.1 µM
[21] = second compound 3.16 µM, first compound 0.316 µM
[22] = second compound 3.16 µM, first compound 1 µM
[23] = second compound 3.16 µM, first compound 3.16 µM
[24] = second compound 3.16 µM, first compound 10 µM
[25] = second compound 10 µM, first compound 0.0316 µM
[26] = second compound 10 µM, first compound 0.1 µM
[27] = second compound 10 µM, first compound 0.316 µM
[28] = second compound 10 µM, first compound 1 µM
[29] = second compound 10 µM, first compound 3.16 µM
[30] = second compound 10 µM, first compound 10 µM
[31] = second compound 0.1 µM, first compound 0.00316 µM
[32] = second compound 0.1 µM, first compound 0.01 µM
[33] = second compound 0.316 µM, first compound 0.00316 µM
[34] = second compound 0.316 µM, first compound 0.01 µM
[35] = second compound 1 µM, first compound 0.00316 µM
[36] = second compound 1 µM, first compound 0.01 µM
[37] = second compound 3.16 µM, first compound 0.01 µM
[38] = second compound 10 µM, first compound 0.00316 µM
[39] = second compound 10 µM, first compound 0.01 µM
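Throughout, for viability, T/C: viability read after seven days of compound exposure; 100% = DMSO vehicle-treated spheroids so lower means less viable.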

Compound | IC50 (second compound 0.1 µM) | IC50 (second compound 0.316 µM) | IC50 (second compound 1 µM) | IC50 (second compound 3.16 µM) | IC50 (second compound 10 µM) | viability, T/C [1] | viability, T/C [2] | viability, T/C [3] | viability, T/C [4] | viability, T/C [7] | viability, T/C [8] | viability, T/C [9] | viability, T/C [10] | viability, T/C [13] | viability, T/C [14] | viability, T/C [15] | viability, T/C [16] | viability, T/C [19] | viability, T/C [20] | viability, T/C [25] | also measured
CC(C)NCC(C(=O)N1CCN(c2ncnc3c2C(C)CC3O)CC1)c1ccc(Cl)cc1 (stereo not drawn) + C=CC(=O)N1CCN(c2nc(=O)n(-c3c(C)ccnc3C(C)C)c3nc(-c4c(O)cccc4F)c(F)cc23)C(C)C1 | 615 nM | 650 nM | 636 nM | 271 nM | 51.3 nM | 102% | 99.5% | 63.7% | 37.5% | 106% | 93.6% | 63.2% | 41.1% | 109% | 103% | 66.5% | 36.7% | 100% | 85.1% | 70.3% | viability, T/C [5]: 27.9%; viability, T/C [6]: 13.4%; viability, T/C [11]: 23.9%; viability, T/C [12]: 11.8%; viability, T/C [17]: 26.3%; viability, T/C [18]: 10.6%; viability, T/C [21]: 40.9%; viability, T/C [22]: 25.7%; viability, T/C [23]: 14.3%; viability, T/C [24]: 8.27%; viability, T/C [26]: 20.1%; viability, T/C [27]: 15.9%; viability, T/C [28]: 8.02%; viability, T/C [29]: 6.56%; viability, T/C [30]: 2.87%
CCN1CCN(Cc2ccc(Nc3ncc(F)c(-c4cc(F)c5nc(C)n(C(C)C)c5c4)n3)nc2)CC1 + C=CC(=O)N1CCN(c2nc(=O)n(-c3c(C)ccnc3C(C)C)c3nc(-c4c(O)cccc4F)c(F)cc23)C(C)C1 | > 1000 nM | > 1000 nM | > 1000 nM | > 1000 nM | 571 nM | 98.4% | 129% | 158% | 96.6% | 103% | 117% | 157% | 105% | 99.7% | 113% | 153% | 99.7% | 108% | 139% | 83.3% | viability, T/C [31]: 107%; viability, T/C [32]: 95%; viability, T/C [33]: 104%; viability, T/C [34]: 101%; viability, T/C [35]: 109%; viability, T/C [36]: 103%; viability, T/C (second compound 3.16 µM, first compound 0.00316 µM): 92.2%; viability, T/C [37]: 102%; viability, T/C [21]: 175%; viability, T/C [22]: 73%; viability, T/C [38]: 69.1%; viability, T/C [39]: 64.8%; viability, T/C [27]: 74.1%; viability, T/C [28]: 27.5%
CCNC(=O)CC1N=C(c2ccc(Cl)cc2)c2cc(OC)ccc2-n2c(C)nnc21 (stereo not drawn) + C=CC(=O)N1CCN(c2nc(=O)n(-c3c(C)ccnc3C(C)C)c3nc(-c4c(O)cccc4F)c(F)cc23)C(C)C1 | > 10000 nM | > 10000 nM | 9860 nM | 2730 nM | 306 nM | 108% | 117% | 121% | 162% | 103% | 101% | 125% | 155% | 95.2% | 103% | 126% | 138% | 88.9% | 87.1% | 75.8% | viability, T/C [5]: 132%; viability, T/C [6]: 101%; viability, T/C [11]: 121%; viability, T/C [12]: 87.9%; viability, T/C [17]: 102%; viability, T/C [18]: 49.4%; viability, T/C [21]: 107%; viability, T/C [22]: 101%; viability, T/C [23]: 43.3%; viability, T/C [24]: 14.7%; viability, T/C [26]: 87.1%; viability, T/C [27]: 46.7%; viability, T/C [28]: 18.4%; viability, T/C [29]: 9.07%; viability, T/C [30]: 4.83%
Cn1ncnc1[C@H]1c2n[nH]c(=O)c3cc(F)cc(c23)N[C@@H]1c1ccc(F)cc1 + C=CC(=O)N1CCN(c2nc(=O)n(-c3c(C)ccnc3C(C)C)c3nc(-c4c(O)cccc4F)c(F)cc23)C(C)C1 | > 100 nM | > 100 nM | > 100 nM | > 100 nM | 3.32 nM | 95% | 75.8% |  |  | 87.8% | 79% |  |  | 85.2% | 67.2% |  |  | 61.6% | 50.6% | 32.9% | viability, T/C (second compound 0.1 µM, first compound 0.000316 µM): 98.5%; viability, T/C (second compound 0.1 µM, first compound 0.001 µM): 97.1%; viability, T/C [31]: 111%; viability, T/C [32]: 105%; viability, T/C (second compound 0.316 µM, first compound 0.000316 µM): 106%; viability, T/C (second compound 0.316 µM, first compound 0.001 µM): 114%; viability, T/C [33]: 105%; viability, T/C [34]: 103%; viability, T/C (second compound 1 µM, first compound 0.000316 µM): 106%; viability, T/C (second compound 1 µM, first compound 0.001 µM): 105%; viability, T/C [35]: 108%; viability, T/C [36]: 98.7%; viability, T/C (second compound 3.16 µM, first compound 0.000316 µM): 99.6%; viability, T/C (second compound 3.16 µM, first compound 0.001 µM): 101%; viability, T/C [37]: 76.5%; viability, T/C (second compound 10 µM, first compound 0.000316 µM): 45%; viability, T/C (second compound 10 µM, first compound 0.001 µM): 60.2%; viability, T/C [38]: 51%; viability, T/C [39]: 28.3%; viability, T/C [26]: 24.1%
